Legend:
Assay type in all cases: in vivo
[1] = system: barnyardgrass (Echinochloa crus-galli); experiment: Test A pre-/postemergence plant response
Description: (§1) Seeds of barnyardgrass (Echinochloa crus-galli), large crabgrass (Digitaria sanguinalis), giant foxtail (Setaria faberii), morningglory (Ipomoea spp.), pigweed (Amaranthus retroflexus), velvetleaf (Abutilon theophrasti), wheat (Triticum aestivum) and corn (Zea mays) were planted into a blend of loam soil and sand and treated preemergence with a directed soil spray using test chemicals formulated in a non-phytotoxic solvent mixture which included a surfactant. At the same time these species were also treated with postemergence applications of test compounds formulated in the same manner.
(§2) Plants ranged in height from two to ten cm and were in the one- to two-leaf stage for the postemergence treatment. Treated plants and untreated controls were maintained in a greenhouse for approximately ten days, after which time all treated plants were compared to untreated controls and visually evaluated for injury. Plant response ratings, summarized in Table A, are based on a 0 to 100 scale where 0 is no effect and 100 is complete control. A dash (-) response means no test result.

corn (Zea mays) = experiment: Test A pre-/postemergence plant response
Description: as §1, §2

[2] = system: giant foxtail (Setaria faberii); experiment: Test A pre-/postemergence plant response
Description: as §1, §2

[3] = system: large crabgrass (Digitaria sanguinalis); experiment: Test A pre-/postemergence plant response
Description: as §1, §2

[4] = system: morningglory (Ipomoea spp.); experiment: Test A pre-/postemergence plant response
Description: as §1, §2

[5] = system: pigweed (Amaranthus retroflexus); experiment: Test A pre-/postemergence plant response
Description: as §1, §2

[6] = system: velvetleaf (Abutilon theophrasti); experiment: Test A pre-/postemergence plant response
Description: as §1, §2

[7] = system: wheat (Triticum aestivum); experiment: Test A pre-/postemergence plant response
Description: as §1, §2

[8] = system: barnyardgrass (Echinochloa crus-galli); experiment: Test B flooded paddy test; conditions: for Plant response rating, Flood, Barnyardgrass: 250 g ai/ha, flooded paddy test, visual rating on 0 to 100 scale (0 no effect, 100 complete control) after 13 to 15 days; for Plant response rating, Barnyardgrass: Flood (flooded paddy test), 62 g ai/ha, scale 0 to 100, 0 is no effect, 100 is complete control, 13 to 15 days
Description: (§3) Plant species in the flooded paddy test consisted of rice (Oryza sativa), umbrella sedge (Cyperus difformis), ducksalad (Heteranthera limosa) and barnyardgrass (Echinochloa crus-galli) grown to the 2-leaf stage for testing. At the time of treatment, test pots were flooded with water to 3 cm above the soil surface, treated by application of test compounds directly to the paddy water, and then maintained at that water depth for the duration of the test.
(§4) Treated plants and controls were maintained in a greenhouse for 13 to 15 days, after which time all treated plants were visually evaluated and compared to controls. Plant response ratings, summarized in Table B, are based on a scale of 0 to 100 where 0 is no effect and 100 is complete control. A dash (-) response means no test result.

[9] = system: ducksalad (Heteranthera limosa); experiment: Test B flooded paddy test; conditions: for Plant response rating, Flood, Ducksalad: 250 g ai/ha, flooded paddy test, visual rating on 0 to 100 scale (0 no effect, 100 complete control) after 13 to 15 days; for Plant response rating, Ducksalad: Flood (flooded paddy test), 62 g ai/ha, scale 0 to 100, 0 is no effect, 100 is complete control, 13 to 15 days
Description: as §3, §4

rice (Oryza sativa) = experiment: Test B flooded paddy test; conditions: for Plant response rating, Flood, Rice: 250 g ai/ha, flooded paddy test, visual rating on 0 to 100 scale (0 no effect, 100 complete control) after 13 to 15 days; for Plant response rating, Rice: Flood (flooded paddy test), 62 g ai/ha, scale 0 to 100, 0 is no effect, 100 is complete control, 13 to 15 days
Description: as §3, §4

[10] = system: umbrella sedge (Cyperus difformis); experiment: Test B flooded paddy test; conditions: for Plant response rating, Flood, Sedge, Umbrella: 250 g ai/ha, flooded paddy test, visual rating on 0 to 100 scale (0 no effect, 100 complete control) after 13 to 15 days; for Plant response rating, Sedge, Umbrella: Flood (flooded paddy test), 62 g ai/ha, scale 0 to 100, 0 is no effect, 100 is complete control, 13 to 15 days
Description: as §3, §4

[11] = Postemergence, 125 g ai/ha, visual injury, 0 to 100 scale (0 no effect, 100 complete control), approx. ten days
[12] = Postemergence, 500 g ai/ha, 0 to 100 scale, 0 = no effect, 100 = complete control, approx. ten days
[13] = Preemergence, 125 g ai/ha, 0 to 100 scale, 0 = no effect, 100 = complete control
[14] = Preemergence, 500 g ai/ha, visual injury, 0 to 100 scale (0 no effect, 100 complete control), approx. ten days

SMILES: O=C1CCCC(O)=C1C(=O)c1cnc(-c2ccc(Cl)cc2)n(-c2ccccc2)c1=O [Compound 25]
- Barnyardgrass plant response rating [1, 11]: 30
- Plant response rating, Barnyardgrass [1, 12]: 90
- Plant response rating, Barnyardgrass [1, 13]: 20
- Plant response rating, Barnyardgrass [1, 14]: 80
- Corn plant response rating (corn (Zea mays); [11]): 0
- Plant response rating, Corn (corn (Zea mays); [12]): 20
- Plant response rating, Corn (corn (Zea mays); [13]): 0
- Plant response rating, Corn (corn (Zea mays); [14]): 0
- Foxtail, Giant plant response rating [2, 11]: 50
- Plant response rating, Foxtail, Giant [2, 12]: 90
- Plant response rating, Foxtail, Giant [2, 13]: 50
- Plant response rating, Foxtail, Giant [2, 14]: 90
- Crabgrass, Large plant response rating [3, 11]: 40
- Plant response rating, Crabgrass, Large [3, 12]: 90
- Plant response rating, Crabgrass, Large [3, 13]: 60
- Plant response rating, Crabgrass, Large [3, 14]: 100
- Morningglory plant response rating [4, 11]: 50
- Plant response rating, Morningglory [4, 12]: 90
- Plant response rating, Morningglory [4, 13]: 0
- Plant response rating, Morningglory [4, 14]: 60
- Pigweed plant response rating [5, 11]: 80
- Plant response rating, Pigweed [5, 12]: 100
- Plant response rating, Pigweed [5, 13]: 50
- Plant response rating, Pigweed [5, 14]: 80
- Velvetleaf plant response rating [6, 11]: 100
- Plant response rating, Velvetleaf [6, 12]: 100
- Plant response rating, Velvetleaf [6, 13]: 80
- Plant response rating, Velvetleaf [6, 14]: 100
- Wheat plant response rating [7, 11]: 0
- Plant response rating, Wheat [7, 12]: 0
- Plant response rating, Wheat [7, 13]: 0
- Plant response rating, Wheat [7, 14]: 20
- Plant response rating, Flood, Barnyardgrass [8]: 0
- Plant response rating, Barnyardgrass [8]: 0
- Plant response rating, Flood, Ducksalad [9]: 0
- Plant response rating, Ducksalad [9]: 0
- Plant response rating, Flood, Rice (rice (Oryza sativa)): 0
- Plant response rating, Rice (rice (Oryza sativa)): 0
- Plant response rating, Flood, Sedge, Umbrella [10]: 0
- Plant response rating, Sedge, Umbrella [10]: 0

SMILES: Cc1cccc(C)c1-n1c(-c2ccccc2)ncc(C(=O)C2=C(O)CCCC2=O)c1=O [Compound 31]
- Barnyardgrass plant response rating [1, 11]: 10
- Plant response rating, Barnyardgrass [1, 12]: 80
- Plant response rating, Barnyardgrass [1, 13]: 0
- Plant response rating, Barnyardgrass [1, 14]: 40
- Corn plant response rating (corn (Zea mays); [11]): 0
- Plant response rating, Corn (corn (Zea mays); [12]): 20
- Plant response rating, Corn (corn (Zea mays); [13]): 0
- Plant response rating, Corn (corn (Zea mays); [14]): 0
- Foxtail, Giant plant response rating [2, 11]: 70
- Plant response rating, Foxtail, Giant [2, 12]: 90
- Plant response rating, Foxtail, Giant [2, 13]: 0
- Plant response rating, Foxtail, Giant [2, 14]: 40
- Crabgrass, Large plant response rating [3, 11]: 50
- Plant response rating, Crabgrass, Large [3, 12]: 90
- Plant response rating, Crabgrass, Large [3, 13]: 0
- Plant response rating, Crabgrass, Large [3, 14]: 90
- Morningglory plant response rating [4, 11]: 20
- Plant response rating, Morningglory [4, 12]: 70
- Plant response rating, Morningglory [4, 13]: 0
- Plant response rating, Morningglory [4, 14]: 50
- Pigweed plant response rating [5, 11]: 70
- Plant response rating, Pigweed [5, 12]: 100
- Plant response rating, Pigweed [5, 13]: 40
- Plant response rating, Pigweed [5, 14]: 80
- Velvetleaf plant response rating [6, 11]: 100
- Plant response rating, Velvetleaf [6, 12]: 100
- Plant response rating, Velvetleaf [6, 13]: 10
- Plant response rating, Velvetleaf [6, 14]: 70
- Wheat plant response rating [7, 11]: 0
- Plant response rating, Wheat [7, 12]: 0
- Plant response rating, Wheat [7, 13]: 0
- Plant response rating, Wheat [7, 14]: 0
- Plant response rating, Flood, Barnyardgrass [8]: 0
- Plant response rating, Barnyardgrass [8]: 0
- Plant response rating, Flood, Ducksalad [9]: 75
- Plant response rating, Ducksalad [9]: 60
- Plant response rating, Flood, Rice (rice (Oryza sativa)): 0
- Plant response rating, Rice (rice (Oryza sativa)): 0
- Plant response rating, Flood, Sedge, Umbrella [10]: 75
- Plant response rating, Sedge, Umbrella [10]: 60

From patent US8952024B2, “Herbicidal pyrimidone derivatives” (E I du Pont de Nemours and Company, priority 2009, dated 2015)
